Like-named read-outs stand apart in the source and are kept apart here.
Columns and labels:
[1] = tested on: Major Depressive Disorder patients; test: Double blind, 4 week, paroxetine controlled study of Org 34517 in depressed patients (HAMD-21, afternoon cortisol test); format: in vivo; settings: daily dose 150-300 mg, oral, FIG. 1
Method: A double blind, 4 week, paroxetine controlled study of Org 34517 in depressed patients was carried out. Paroxetine is a selective serotonin re-uptake inhibitor which is recognized as an effective antidepressant for major depression.
Patients were randomly allocated to one of three treatment groups. Group I patients (50 patients) received 2 capsules with 75 mg of Org 34517 and one placebo (total daily dose 150 mg) for the first 2 weeks and 2 capsules with 75 mg Org 34517 and 1 capsule with 150 mg (total daily dose 300 mg) the next 2 weeks; Group II patients (46 patients) received 3 capsules with 150 mg Org 34517 (total daily dose 450 mg) in the first 2 weeks and 4 capsules of Org 34517 (total daily dose 600 mg) in the next 2 weeks; Group III patients (44 patients) received 2 capsules with 10 mg paroxetine and one placebo capsule (total daily dose 20 mg) for the first 2 weeks, followed by 2 capsules of 10 mg and one capsule of 20 mg paroxetine (total daily dose 40 mg) in the next 2 weeks. Medication was administered orally in the morning. Efficacy assessment was done on days 4, 7, 10, 14, 21, 28 and 35 by using the 21-item HAMD scale.
The cortisol levels were determined using the afternoon cortisol test (ACT) as described by Halbreich et al. [J. Clin. Endocrinol. Metab. (1982) 54 (6), 1262].

[2] = tested on: psychosis associated with psychotic major depression; settings: mifepristone 8-12 mg/kg/day over 4 days; cited from earlier work
[3] = tested on: psychosis associated with psychotic major depression; settings: cited from earlier work

Row | Structure (SMILES) | p of correlation between HAMD-21 change and cortisol (ACT) change ([1]; HAMD-21 change scored at day 14, cortisol change at 28 days) | clinical improvement (HAMD decrease) in relation to cortisol change [1] | effect in the treatment of psychosis associated with psychotic major depression [2] | change in Brief Psychiatric Rating Scale ([3]; daily dose 50 mg) | change in Brief Psychiatric Rating Scale ([3]; daily dose 600 mg) | change in Brief Psychiatric Rating Scale ([3]; daily dose 1200 mg)
1 | CC#C[C@]1(O)CC[C@H]2[C@@H]3CCC4=CC(=O)CCC4=C3[C@@H](c3ccc4c(c3)OCO4)C[C@@]21C [Org 34517, (11β,17β)-11-(1,3-benzodioxol-5-yl)-17-hydroxy-17-(1-propynyl)estra-4,9-dien-3-one] | 0.02 | most prominent clinical improvement (HAMD decrease) is seen in patients were cortisol is not increased |  |  |  | 
2 | CC#C[C@]1(O)CC[C@H]2[C@@H]3CCC4=CC(=O)CCC4=C3[C@@H](c3ccc(N(C)C)cc3)C[C@@]21C [mifepristone, 17β-hydroxy-11β-(4-dimethylaminophenyl)-17α-(1-propynyl)estra-4,9-dien-3-one] |  |  | effective | 33% | 40% | 52%
